Experimental data taken from US7141590B2, “Pharmaceutical uses and synthesis of nicotinanilide-N-oxides” (UCB SA, priority 2000, dated 2006).
Several values for one entry are separate records, joined by “and”; a condition that tells them apart may be missing. Identical values can stand only once.

What was measured:
somatostatin receptors = assay: Somatostatin assay ([125I]tyr1 Somatostatin binding, AtT-20 membranes); set-up: species or system mouse; conditions: screened at 10 μM; Panlabs
Experimental: This assay measures binding of [^125I]tyr^1 Somatostatin to somatostatin receptors. See Thermos, K. and Reisine, T. Mol. Pharmacol. 33:370–377, 1988, and Srikant, C. B. and Heisler, S., Endocrinology 117:271–278, 1985. In brief, AtT-20 (mouse pituitary) cells were used to prepare membranes in modified Tris-HCl pH 7.5 buffer using standard techniques. A 200 μg aliquot of membrane was incubated with 0.04 nM [^125I]tyr^1 Somatostatin for 60 minutes at 25° C. Non-specific binding was estimated in the presence of 1 μM somatostatin-14. Membranes were filtered and washed 3 times and the filters were counted to determine [^125I]tyr^1 Somatostatin specifically bound. Compounds were screened at 10 μM, with the data reported in Table 6 (row titled “Somat.”) in terms of specific binding (%).

[1] = target: T1, human chemokine CCR5 receptor (Homo sapiens, UniProt P51681); assay: CCR5 assay ([125I]MIP-1β binding); conditions: 2 h; screened at 10 μM; Panlabs; read-out: CCR5 specific binding (%)
T1 construct: host or cells: CHO-K1-p242-CCR5 cells
Experimental: This assay measures the binding of [^125I]MIP-1β to human chemokine CCR5 receptors. See Samson, M., et al., J. Biol. Chem. 272:24934–24941, 1997. In brief, CHO-K1-p242-CCR5 cells stably transfected with a plasmid encoding the human chemokine CCR5 receptor were used to prepare membranes in modified HEPES buffer at pH 7.4 using standard techniques. A 1 μg aliquot was incubated with 0.1 nM [^125I]MIP-1β for 120 minutes at 25° C. Non-specific binding was estimated in the presence of 0.1 μM MIP-1β. Membranes were filtered and washed 3 times and filters were counted to determine [^125I]MIP-1β specifically bound. Compounds were screened at 10 μM. The data obtained from this assay is reported in Table 6 (row titled “CCR5”), in terms of specific binding (%).

[2] = target: T2, human CXCR1 (IL8RA) chemokine receptor (Homo sapiens, UniProt P25024); assay: CXCR1 assay ([125I]Interleukin-8 binding); conditions: screened at 10 μM; Panlabs; read-out: CXCR1 specific binding (%)
T2 construct: host or cells: CHO cells
T2 sequence (P25024 1-350): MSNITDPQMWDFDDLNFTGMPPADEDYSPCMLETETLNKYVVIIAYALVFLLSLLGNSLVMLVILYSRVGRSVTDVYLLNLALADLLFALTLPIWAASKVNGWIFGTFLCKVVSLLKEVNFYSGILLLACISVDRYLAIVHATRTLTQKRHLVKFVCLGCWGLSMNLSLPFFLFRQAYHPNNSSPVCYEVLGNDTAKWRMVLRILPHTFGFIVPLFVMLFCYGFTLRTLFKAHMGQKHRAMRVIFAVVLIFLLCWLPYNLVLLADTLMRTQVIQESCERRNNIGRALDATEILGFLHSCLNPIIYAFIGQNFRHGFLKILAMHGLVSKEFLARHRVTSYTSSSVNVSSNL
Experimental: This assay measures binding of [^125I]Interleukin-8 to human interleukin-CXCR1 (ILR8A) receptors. See Ahuja, S. K. and Murphy, P. M. J. Biol. Chem. 271:20545–20550, 1996 for details. In brief, CHO cells stably transfected with a plasmid encoding the human CXCR1 (IL8RA) chemokine receptor were used to prepare membranes in modified HEPES pH 7.4 buffer using standard techniques. A 5 μg aliquot of membrane was incubated with 8 pM [^125I]Interleukin-8 for 60 minutes at room temperature. Non-specific binding was estimated in the presence of 10 nM interleukin-8. Membranes were filtered and washed 3 times and the filters were counted to determine [^125I]Interleukin-8 specifically bound. Compounds were screened at 10 μM, with the data reported in Table 6 (row titled “CXCR1”) in terms of specific binding (%).

[3] = target: T3, human CXCR2 (IL8RB) chemokine receptor (Homo sapiens, UniProt P25025); assay: Panlabs CXCR2 filtermat binding assay ([125I]Interleukin-8); conditions: 1 h, screened at 10 μM, read-out: CXCR2 specific binding (%)
T3 construct: host or cells: CHO cells
T3 sequence (P25025 1-360): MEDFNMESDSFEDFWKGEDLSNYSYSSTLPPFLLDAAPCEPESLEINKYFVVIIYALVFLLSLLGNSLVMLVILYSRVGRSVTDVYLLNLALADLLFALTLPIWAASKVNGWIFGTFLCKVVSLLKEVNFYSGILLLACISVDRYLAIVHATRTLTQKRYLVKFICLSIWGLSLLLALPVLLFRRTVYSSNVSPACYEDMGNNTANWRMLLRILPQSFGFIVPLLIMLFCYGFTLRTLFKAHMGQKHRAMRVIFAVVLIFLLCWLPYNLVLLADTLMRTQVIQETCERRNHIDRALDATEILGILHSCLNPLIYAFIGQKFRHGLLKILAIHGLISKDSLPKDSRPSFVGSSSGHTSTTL
Experimental: Selected compounds were screened by Panlabs (Bothell Wash.) using their CXCR2 filtermat binding assay. This assay measures binding of [^125I]Interleukin-8 to human interleukin-CXCR2 (IL8RB) receptors and is also described in Ahuja, S. K. and Murphy, P. M., J. Biol. Chem. 271:20545–20550, 1996. In summary, CHO cells stably transfected with a plasmid encoding the human CXCR2 (IL8RB) chemokine receptor were used to prepare membranes in modified HEPES pH 7.4 buffer. A 2 μg aliquot of membrane was incubated with 15 pM [^125I]Interleukin-8 for 60 minutes at room temperature. Non-specific binding was estimated in the presence of 10 nM interleukin-8. Membranes were filtered and washed 3 times and the filters were counted to determine [^125I]Interleukin-8 specifically bound. Compounds were screened at 10 μM and results are reported in terms of Specific Binding (%) in Tables 3–5.
This assay measures binding of [^125I]Interleukin-8 to human interleukin-CXCR2 (IL8RB) receptors. See Ahuja, S. K. and Murphy, P. M., J. Biol. Chem. 271: 20545–20550, 1996, for details. In brief, CHO cells stably transfected with a plasmid encoding the human CXCR2 (IL8RB) chemokine receptor were used to prepare membranes in modified HEPES pH 7.4 buffer using standard techniques. A 2 μg aliquot of membrane was incubated with 15 pM [^125I]Interleukin-8 for 60 minutes at room temperature. Non-specific binding was estimated in the presence of 10 nM interleukin-8. Membranes were filtered and washed 3 times and the filters were counted to determine [^125I]Interleukin-8 specifically bound. Compounds were screened at 10 μM, with the results reported in Table 6 (row titled “CXCR2”) in terms of specific binding (%).

[4] = target: T4, human neuropeptide Y1 (NPY1) receptors (Homo sapiens, UniProt P25929); assay: NPY1 assay ([125I]Peptide YY binding, SK-N-MC cells); conditions: screened at 10 μM; Panlabs
T4 construct: host or cells: SK-N-MC (human neuroblastoma) cells
T4 sequence (P25929 1-384): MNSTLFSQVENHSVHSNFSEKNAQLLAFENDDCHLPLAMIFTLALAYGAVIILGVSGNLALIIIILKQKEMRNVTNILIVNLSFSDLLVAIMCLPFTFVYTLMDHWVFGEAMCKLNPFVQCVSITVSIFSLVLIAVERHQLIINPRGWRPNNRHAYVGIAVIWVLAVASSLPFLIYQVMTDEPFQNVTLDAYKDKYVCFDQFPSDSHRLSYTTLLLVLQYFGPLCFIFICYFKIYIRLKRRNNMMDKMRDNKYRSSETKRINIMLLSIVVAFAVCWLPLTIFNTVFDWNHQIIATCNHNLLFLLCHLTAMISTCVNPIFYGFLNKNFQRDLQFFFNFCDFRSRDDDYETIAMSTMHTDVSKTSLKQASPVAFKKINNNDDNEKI
Experimental: This assay measures binding of [^125I]Peptide YY (PYY) to human neuropeptide Y1 (NPY1) receptors. See Fuhlendorff, J., et al. Proc. Natl Acad. Sci. USA 87:182–186, 1990 and Sheikh, S. P., et al. J. Biol. Chem. 264: 6648–6654, 1989. In brief, SK-N-MC (human neuroblastoma) cells were used in modified HBSS pH 7.4 buffer using standard techniques. The cells (10^6) were incubated with 12.5 pM [^125I]PYY for 45 minutes at 25° C. […] Cells were centrifuged and pellets were counted to determine [^125I]PYY specifically bound. Compounds were screened at 10 μM, with the results shown in Table 6 (row titled “NPY1”), reported in terms of specific binding (%).

[5] = target: T3, human CXCR2 (IL8RB) chemokine receptor; conditions: CXCR2 reference data; cited from earlier work
[6] = target: T2, human CXCR1 (IL8RA) chemokine receptor; conditions: CXCR1 reference data; cited from earlier work
[7] = target: T1, human chemokine CCR5 receptor; conditions: CCR5 reference data; cited from earlier work

T1 sequence (P51681 whole entry): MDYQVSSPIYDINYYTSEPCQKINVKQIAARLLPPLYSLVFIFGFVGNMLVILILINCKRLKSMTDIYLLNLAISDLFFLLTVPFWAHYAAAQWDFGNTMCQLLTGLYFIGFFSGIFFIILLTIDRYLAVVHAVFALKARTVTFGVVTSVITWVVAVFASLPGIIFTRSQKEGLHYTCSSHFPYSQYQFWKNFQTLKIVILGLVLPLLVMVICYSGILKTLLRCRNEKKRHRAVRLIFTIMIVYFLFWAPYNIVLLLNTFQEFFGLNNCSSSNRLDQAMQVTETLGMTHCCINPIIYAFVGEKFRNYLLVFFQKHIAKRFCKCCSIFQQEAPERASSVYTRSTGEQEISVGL

Row | Molecule | Somat. specific binding (%) (somatostatin receptors) | remaining activity at 10 µM [1] | remaining activity at 10 µM [2] | remaining activity at 10 µM [3] | NPY1 specific binding (%) [4] | further results
1 | O=C(Nc1ccc(F)cc1)c1ccc(S(=O)(=O)Cc2ccccc2)[n+]([O-])c1 [drawing 133] | * (“*” indicates a value of less than or equal to 40) | ≤ 40% | ≤ 40% | > 40% | * (“*” indicates a value of less than or equal to 40) | 
2 | CCS(=O)(=O)c1ccc(C(=O)Nc2ccc(F)cc2)c[n+]1[O-] [drawing 131] | * (“*” indicates a value of less than or equal to 40) | > 40% | ≤ 40% | > 40% | ** (“**” indicates a value of greater than 40) | 
3 | Interleukin-8: CXC chemokine; standard reference agent used in CXCR1 and CXCR2 binding assays |  |  |  |  |  | IC50 [5]: 0.035 nM; Ki [5]: 0.024 nM; nH [5]: 0.7; IC50 [6]: 0.035 nM; Ki [6]: 0.007 nM; nH [6]: 1.0
4 | GROα (or MGSA): Growth Regulatory Oncogene α; Melanoma Growth Stimulatory Activity; CXC chemokine |  |  |  |  |  | IC50 [5]: 0.098 nM; Ki [5]: 0.098 nM and 0.068 nM; nH [5]: 0.9; IC50 [6]: > 10000 nM
5 | O=C(Nc1ccc(F)cc1)c1ccc(S(=O)(=O)C2CCCC2)[n+]([O-])c1 [drawing 134] | * (“*” indicates a value of less than or equal to 40) | > 40% | ≤ 40% | > 40% | * (“*” indicates a value of less than or equal to 40) | 
6 | CS(=O)(=O)c1ccc(C(=O)Nc2ccc(F)cc2)c[n+]1[O-] [drawing 129] | ** (“**” indicates a value of greater than 40) | > 40% | > 40% | > 40% | ** (“**” indicates a value of greater than 40) | 
7 | O=C(Nc1ccc(F)cc1)c1ccc(Cl)[n+]([O-])c1 [drawing 128] | * (“*” indicates a value of less than or equal to 40) |  | > 40% | > 40% | * (“*” indicates a value of less than or equal to 40) | 
8 | O=C(Nc1ccc(F)cc1)c1cc(Cl)c(Cl)[n+]([O-])c1 [drawing 136] | * (“*” indicates a value of less than or equal to 40) | ≤ 40% | > 40% | > 40% |  | 
9 | MIP-1α: microphage inflammatory protein |  |  |  |  |  | IC50 [7]: 0.039 nM; Ki [7]: 0.03 nM; nH [7]: 0.8
10 | CCCS(=O)(=O)c1ccc(C(=O)Nc2ccc(F)cc2)c[n+]1[O-] [drawing 132] | * (“*” indicates a value of less than or equal to 40) | > 40% | ≤ 40% | > 40% | ** (“**” indicates a value of greater than 40) | 
11 | O=C(Nc1ccc(F)cc1)c1ccc(S(=O)(=O)c2ccccc2)[n+]([O-])c1 [drawing 130] | * (“*” indicates a value of less than or equal to 40) | ≤ 40% | > 40% | > 40% | * (“*” indicates a value of less than or equal to 40) | 
12 | O=C(Nc1ccc(F)c(F)c1)c1ccc(Cl)[n+]([O-])c1 [drawing 135] |  | ≤ 40% | ≤ 40% | > 40% |  | 
13 | MIP-1β: microphage inflammatory protein; standard reference agent used in CCR5 assay (protein, UniProt P13236 24-92, looked up, ends and bridges not checked) C-C motif chemokine 4: APMGSDPPTACCFSYTARKLPRNFVVDYYETSSLCSQPAVVFQTKRSKQVCADPSESWVQEYVYDLELN |  |  |  |  |  | IC50 [7]: 0.074 nM; Ki [7]: 0.057 nM; nH [7]: 0.9
